Literature values as cited in PubChem BioAssay AID1259409 (Chemical Carcinogenesis Research Information System (CCRIS), 2018).
Several values for one entry are separate records, joined by “and”; a condition that tells them apart may be missing. Identical values can stand only once.

Test system: rodent chemically induced tumor inhibition, incidence and multiplicity
Assay: CCRIS tumor inhibitor studies
Conditions: Dose [Inhibitor]: 0; for outcome: Target Tissue: Type of Lesion: URINARY BLADDER: SQUAMOUS CELL CARCINOMA

CCCCCCCCCCCCCCCCCCCCCCCCCC(=O)N[C@@H](CO[C@H]1O[C@H](CO)[C@H](O)[C@H](O)[C@H]1O)[C@H](O)[C@H](O)CCCCCCCCCCCCCC
outcome (Carcinogen: N-BUTYL-N-(4-HYDROXYBUTYL)NITROSAMINE, 3817-11-6, 0.1 UG/KG ONCE/WK FOR 17 WK BY INTRAVESICULAR INSTILLATION UNDER ANESTHESIA, BEGINNING 1 WK AFTER INITIATION PERIOD (, Route [Inhibitor]: INTRAVESICULAR, Species: MOUSE, Strain/Sex: C57BL6/FEMALE, Dose [Carcinogen]: 0.05% IN DRINKING WATER FOR 8 WK): 0/13 (0%), 0/13 (0%), not significant
outcome (Carcinogen: N-BUTYL-N-(4-HYDROXYBUTYL)NITROSAMINE, 3817-11-6, 10 UG/KG ONCE/WK FOR 17 WK BY INTRAVESICULAR INSTILLATION UNDER ANESTHESIA, BEGINNING 1 WK AFTER INITIATION PERIOD (S, Route [Inhibitor]: INTRAVESICULAR, Species: MOUSE, Strain/Sex: C57BL6/FEMALE, Dose [Carcinogen]: 0.05% IN DRINKING WATER FOR 8 WK): 0/13 (0%), 2/11 (18.2%), not significant
tumour outcome (control, treated, inhibition, significance) (Carcinogen: N-BUTYL-N-(4-HYDROXYBUTYL)NITROSAMINE, 3817-11-6, 10 UG/KG ONCE/WK FOR 17 WK BY INTRAVESICULAR INSTILLATION UNDER ANESTHESIA, BEGINNING 1 WK AFTER INITIATION PERIOD (S, Route [Inhibitor]: INTRAVESICULAR, Species: MOUSE, Strain/Sex: C57BL6/FEMALE, Target Tissue: Type of Lesion: URINARY BLADDER: TRANSITIONAL CELL CARCINOMA, Dose [Carcinogen]: 0.05% IN DRINKING WATER FOR 8 WK): 1/13 (7.7%), 3/11 (27.3%), -254%, not significant

CC(O)CCC(=O)c1ccoc1 (stereo not drawn)
tumour outcome (control, treated, inhibition, significance) (Carcinogen: 4-(METHYLNITROSAMINO)-1-(3-PYRIDYL)-1-BUTANONE, 64091-91-4, 1 UMOL IN 0.1 ML CORN OIL ONCE 2 HR PRIOR TO CARCINOGEN DOSE (STUDY DURATION: 16 WK), Route [Inhibitor]: GAVAGE, Species: MOUSE, Strain/Sex: STRAIN-A/FEMALE, Target Tissue: Type of Lesion: LUNG: ADENOMA, Dose [Carcinogen]: 10 UMOL IN 0.1 ML SALINE ONCE, Promoter: NONE USED): 100%, 100%, 0%, not significant

CCCC[C@@H](C)[C@@H](OC(=O)C[C@@H](CC(=O)O)C(=O)O)[C@H](C[C@@H](C)C[C@H](O)CCCC[C@@H](O)C[C@H](O)[C@H](C)N)OC(=O)C[C@@H](CC(=O)O)C(=O)O
tumour outcome (control, treated, inhibition, significance) (Carcinogen: N-METHYL-N'-NITRO-NITROSOGUANIDINE, 13830-58-5, 3.2 PPM IN FEED FOR 42 WK BEGINNING 1 MO POST CARCINOGEN TREATMENT (STUDY DURATION: 64 WK), Route [Inhibitor]: ORAL, Species: FISH, Strain/Sex: SHASTA RAINBOW TROUT/MALE,FEMALE, Target Tissue: Type of Lesion: KIDNEY: TUMOR, Dose [Carcinogen]: 35 PPM IN WATER FOR 30 MIN, Promoter: NONE): 19%, 14%, 26%, not significant
tumour outcome (control, treated, inhibition, significance) (Carcinogen: N-METHYL-N'-NITRO-NITROSOGUANIDINE, 13830-58-5, 3.2 PPM IN FEED FOR 42 WK BEGINNING 1 MO POST CARCINOGEN TREATMENT (STUDY DURATION: 64 WK), Route [Inhibitor]: ORAL, Species: FISH, Strain/Sex: SHASTA RAINBOW TROUT/MALE,FEMALE, Target Tissue: Type of Lesion: LIVER: TUMOR, Dose [Carcinogen]: 35 PPM IN WATER FOR 30 MIN, Promoter: NONE): 45%, 25%, 44%, not significant
tumour outcome (control, treated, inhibition, significance) (Carcinogen: N-METHYL-N'-NITRO-NITROSOGUANIDINE, 13830-58-5, 3.2 PPM IN FEED FOR 42 WK BEGINNING 1 MO POST CARCINOGEN TREATMENT (STUDY DURATION: 64 WK), Route [Inhibitor]: ORAL, Species: FISH, Strain/Sex: SHASTA RAINBOW TROUT/MALE,FEMALE, Target Tissue: Type of Lesion: STOMACH: TUMOR, Dose [Carcinogen]: 35 PPM IN WATER FOR 30 MIN, Promoter: NONE): 32%, 40%, -25%, not significant
tumour outcome (control, treated, inhibition, significance) (Carcinogen: N-METHYL-N'-NITRO-NITROSOGUANIDINE, 13830-58-5, 3.2 PPM IN FEED FOR 42 WK BEGINNING 1 MO POST CARCINOGEN TREATMENT (STUDY DURATION: 64 WK), Route [Inhibitor]: ORAL, Species: FISH, Strain/Sex: SHASTA RAINBOW TROUT/MALE,FEMALE, Target Tissue: Type of Lesion: SWIM BLADDER: TUMOR, Dose [Carcinogen]: 35 PPM IN WATER FOR 30 MIN, Promoter: NONE): 54%, 44%, 18%, not significant
tumour outcome (control, treated, inhibition, significance) (Carcinogen: N-METHYL-N'-NITRO-NITROSOGUANIDINE, 13830-58-5, 23 PPM IN FEED FOR 42 WK BEGINNING 1 MO POST CARCINOGEN TREATMENT (STUDY DURATION: 64 WK), Route [Inhibitor]: ORAL, Species: FISH, Strain/Sex: SHASTA RAINBOW TROUT/MALE,FEMALE, Target Tissue: Type of Lesion: KIDNEY: TUMOR, Dose [Carcinogen]: 35 PPM IN WATER FOR 30 MIN, Promoter: NONE): 19%, 13%, 32%, not significant
tumour outcome (control, treated, inhibition, significance) (Carcinogen: N-METHYL-N'-NITRO-NITROSOGUANIDINE, 13830-58-5, 23 PPM IN FEED FOR 42 WK BEGINNING 1 MO POST CARCINOGEN TREATMENT (STUDY DURATION: 64 WK), Route [Inhibitor]: ORAL, Species: FISH, Strain/Sex: SHASTA RAINBOW TROUT/MALE,FEMALE, Target Tissue: Type of Lesion: STOMACH: TUMOR, Dose [Carcinogen]: 35 PPM IN WATER FOR 30 MIN, Promoter: NONE): 32%, 31%, 3%, not significant
tumour outcome (control, treated, inhibition, significance) (Carcinogen: N-METHYL-N'-NITRO-NITROSOGUANIDINE, 13830-58-5, 104 PPM IN FEED FOR 42 WK BEGINNING 1 MO POST CARCINOGEN TREATMENT (STUDY DURATION: 64 WK), Route [Inhibitor]: ORAL, Species: FISH, Strain/Sex: SHASTA RAINBOW TROUT/MALE,FEMALE, Target Tissue: Type of Lesion: KIDNEY: TUMOR, Dose [Carcinogen]: 35 PPM IN WATER FOR 30 MIN, Promoter: NONE): 19%, 6%, 68%, p<0.05
tumour outcome (control, treated, inhibition, significance) (Carcinogen: N-METHYL-N'-NITRO-NITROSOGUANIDINE, 13830-58-5, 104 PPM IN FEED FOR 42 WK BEGINNING 1 MO POST CARCINOGEN TREATMENT (STUDY DURATION: 64 WK), Route [Inhibitor]: ORAL, Species: FISH, Strain/Sex: SHASTA RAINBOW TROUT/MALE,FEMALE, Target Tissue: Type of Lesion: LIVER: TUMOR, Dose [Carcinogen]: 35 PPM IN WATER FOR 30 MIN, Promoter: NONE): 45%, 76%, -69%, p<0.05
tumour outcome (control, treated, inhibition, significance) (Carcinogen: N-METHYL-N'-NITRO-NITROSOGUANIDINE, 13830-58-5, 104 PPM IN FEED FOR 42 WK BEGINNING 1 MO POST CARCINOGEN TREATMENT (STUDY DURATION: 64 WK), Route [Inhibitor]: ORAL, Species: FISH, Strain/Sex: SHASTA RAINBOW TROUT/MALE,FEMALE, Target Tissue: Type of Lesion: STOMACH: TUMOR, Dose [Carcinogen]: 35 PPM IN WATER FOR 30 MIN, Promoter: NONE): 32%, 12%, 62%, p<0.05 and 54%, 51%, 6%, not significant
